Read-outs that look alike come from different tables or passages of the source.
What was measured:
AR42J tumor-bearing mice [1] = settings: female, CD-1 nude (athymic nude), mouse, in vivo, iv, 5 MBq per mouse
Protocol: (§1) Female athymic nude mice (CD-1 nude), age 5–6 weeks, were obtained from Charles River Laboratories, Sulzfeld, Germany. U87MG cells and AR42J-cells were suspended in PBS (5 × 10^6 cells in 100 μL) and subcutaneously inoculated on each shoulder. Two to three weeks later, when the tumor reached a size of about 300–500 mm^3, the mice were used for the in vivo studies.
(§2) Biodistribution studies were performed with U87MG tumor and AR42J tumor-bearing mice 2 weeks after tumor cell inoculation. ^44Sc- and ^68Ga-labeled peptides (~5 MBq, ~1 nmol per mouse) were intravenously injected in a volume of 100–200 μL. Mice were sacrificed at 30 min, 2 h and 5 h after injection (p.i.) of the ^44Sc-labeled peptides. Mice which were injected with ^68Ga-labeled peptides were sacrificed at 30 min and 2 h p.i. Selected tissues and organs were collected, weighed, and counted for radioactivity using a γ-counter (Wallac Wizard 1480, Perkin Elmer). The results were listed as a percentage of the injected activity per gram of tissue mass (% IA/g), using counts of a defined volume of the original injection solution counted at the same time. The data were analyzed for significance using a two-way ANOVA test (Graph Pad Prism 6 software, version 6.05). A p-value of < 0.05 was considered statistically significant.

in vivo = settings: female, CD-1 nude (athymic nude), mouse, iv, 5 MBq per mouse, total radioactivity, Biodistribution
Protocol: as §1, §2

[2] = Metal challenge stability in saline with 10 mM Cu^2+ (TLC); format: physicochemical; settings: 0.9 % NaCl with 10 mM Cu^2+, 37 °C, after two half-lives, 80–100 MBq in 800 μL
Protocol: Aliquots were taken from the prepared solutions at different time points over at least four half-lives, respectively, of ^44Sc and ^68Ga and analyzed by TLC (TLC was used, as the high metal concentrations used in this study may impair the long-term performance of HPLC columns). […] The TLC plates (Silica-gel 60, Merck) were developed using 0.1 M sodium citrate (pH 4.7) as mobile phase. The quantitative distribution of radioactivity was determined with an autoradiography system (Cyclone Plus, Perkin Elmer) and its associated software (Optiquant, version 5.0).
The influence of high metal cation concentration on the stability of ^44Sc and ^68Ga labeled peptides was monitored in solutions containing 0.01 M Fe^3+ or Cu^2+. An aqueous metal cation solution (16 μL of a 0.5 M Fe^3+/Cu^2+ solution) was added to 80–100 MBq of ^44Sc or ^68Ga labeling solution and diluted with 0.9 % NaCl solution to a volume of 800 μL. The incubation conditions, time points of retrieving samples and analysis by TLC were kept the same, as described above.

AR42J tumor-bearing mice [3] = assay: PET/CT imaging of AR42J tumor-bearing mice; settings: 3 h after i.v. injection of ~10 MBq (~1 nmol; ^44Sc-NODAGA-NOC ~3 nmol), one or two mice
Protocol: A bench-top preclinical PET scanner (G8, Sofie Biosciences, California, U.S.A. and Perkin Elmer, Massachusetts, U.S.A.) was employed for the PET scans of the tumor-bearing mice. The energy window was set to 150–650 keV. Mice were injected intravenously with ^44Sc- or ^68Ga-labeled peptides (~10 MBq, ~1 nmol per mouse) in a volume of 100–200 μL. The PET scans were performed 3 h and 5 h after injection of the ^44Sc-labeled peptides and 3 h after injection of the ^68Ga-labeled peptides, using G8 acquisition software (version 2.0.0.10). All static PET scans lasted for 20 min. During the acquisition the mice were anesthetized by inhalation of a mixture of isoflurane and oxygen. The images were reconstructed with maximum-likelihood expectation maximization (MLEM). Gauss post-reconstruction filtering was performed using VivoQuant post-processing software (version 2.10, inviCRO Imaging Services and Software, Boston, U.S.A.).

[4] = Biodistribution in AR42J tumor-bearing mice; settings: female, CD-1 nude (athymic nude), mouse, AR42J tumor / liver, iv, total radioactivity, Tumor-to-liver ratio, i.v. ~5 MBq (~1 nmol), 2 h p.i., mean ± SD, n=3
Protocol: as §1, §2

[5] = Biodistribution in U87MG tumor-bearing mice; format: in vivo; settings: female, CD-1 nude (athymic nude), mouse, U87MG tumor, iv, total radioactivity, i.v. ~5 MBq (~1 nmol), 2 h p.i., mean ± SD, n=3, read-out: Biodistribution, U87MG Tumor
Protocol: as §1, §2

For `C[C@@H](O)[C@@H]1NC(=O)[C@H](CCCCN)NC(=O)[C@@H](Cc2c[nH]c3ccccc23)NC(=O)[C@H](Cc2cccc3ccccc23)NC(=O)[C@@H](NC(=O)[C@@H](Cc2ccccc2)NC(=O)CN2CCN(CC(=O)O)CCN(CC(=O)O)CCN(CC(=O)O)CC2)CSSC[C@@H](C(=O)N[C@H](CO)[C@@H](C)O)NC1=O` [^44Sc-DOTA-NOC, metal not drawn], the “Biodistribution, Pancreas” value (AR42J tumor-bearing mice [1]; 2 h) was 0.71 ± 0.01 % IA/g, the “Biodistribution, Stomach” value (AR42J tumor-bearing mice [1]; 2 h) was 0.71 ± 0.05 % IA/g and the tissue uptake at 0.5 h (in vivo; Intestines) was 1.02 ± 0.37 %ID/g. It also gave a tissue uptake at 0.5 h (in vivo; Pancreas) of 1.29 ± 0.28 %ID/g, a tissue uptake at 5 h (in vivo; Pancreas) of 0.57 ± 0.07 %ID/g and a tissue uptake at 0.5 h (in vivo; Stomach) of 1.38 ± 0.29 %ID/g. It also gave a tissue uptake at 5 h (in vivo; Stomach) of 0.52 ± 0.09 %ID/g.
For `C[C@@H](O)[C@@H]1NC(=O)[C@H](CCCCN)NC(=O)[C@@H](Cc2c[nH]c3ccccc23)NC(=O)[C@H](Cc2cccc3ccccc23)NC(=O)[C@@H](NC(=O)[C@@H](Cc2ccccc2)NC(=O)CN2CCN(CC(=O)O)CCN(CC(=O)O)CCN(CC(=O)O)CC2)CSSC[C@@H](C(=O)N[C@H](CO)[C@@H](C)O)NC1=O` [^68Ga-DOTA-NOC, metal not drawn], the “Biodistribution, Intestines” value (AR42J tumor-bearing mice [1]; 0.5 h) was 0.99 ± 0.13 % IA/g, the “Biodistribution, Pancreas” value (AR42J tumor-bearing mice [1]; 0.5 h) was 2.48 ± 0.11 % IA/g and the “Biodistribution, Stomach” value (AR42J tumor-bearing mice [1]; 0.5 h) was 2.27 ± 0.21 % IA/g. For the same compound, the “Biodistribution, Pancreas” value (AR42J tumor-bearing mice [1]; 2 h) was 1.70 ± 0.22 % IA/g and the “Biodistribution, Stomach” value (AR42J tumor-bearing mice [1]; 2 h) was 1.68 ± 0.27 % IA/g.
For `N=C(N)NCCC[C@@H]1NC(=O)[C@H](CCCCNC(=O)CN2CCN(CC(=O)O)CCN(CC(=O)O)CCN(CC(=O)O)CC2)NC(=O)[C@@H](Cc2ccccc2)NC(=O)[C@H](CC(=O)O)NC(=O)CNC1=O` [^68Ga-DOTA-RGD, metal not drawn], the “Amount of intact compound in presence of 10 mM Cu^2+” value [2] was 10%.
For `C[C@@H](O)[C@@H]1NC(=O)[C@H](CCCCN)NC(=O)[C@@H](Cc2c[nH]c3ccccc23)NC(=O)[C@H](Cc2cccc3ccccc23)NC(=O)[C@@H](NC(=O)[C@@H](Cc2ccccc2)NC(=O)CCC(C(=O)O)N2CCN(CC(=O)O)CCN(CC(=O)O)CC2)CSSC[C@@H](C(=O)N[C@H](CO)[C@@H](C)O)NC1=O` (stereo partly shown) [^68Ga-NODAGA-NOC, metal not drawn], the “PET/CT distribution of radioactivity (in words)” value (AR42J tumor-bearing mice [3]) was “accumulated solely in tumors and kidneys” and the tissue to tissue ratio at 2 h [4] was 5.88 ± 0.68.
In the case of `N=C(N)NCCC[C@@H]1NC(=O)[C@H](CCCCNC(=O)CCC(C(=O)O)N2CCN(CC(=O)O)CCN(CC(=O)O)CC2)NC(=O)[C@@H](Cc2ccc(O)cc2)NC(=O)[C@H](CC(=O)O)NC(=O)CNC1=O` (stereo partly shown) [^68Ga-NODAGA-RGD, metal not drawn], the tissue uptake at 2 h [5] is reported as 3.13 ± 0.27 %ID/g.
